Reference: patent publication US6358713B1, “In vitro ribosome evolution” (Johns Hopkins University, priority 1999, dated 2002)

Assays:
[1] = tested on: peptidyl transferase A site of the 50S subunit; assay: Kinetic characterization of A-site substrates in the peptidyl transferase fragment reaction; format: biochemical; conditions: fragment reaction conditions, P-site substrate N-Ac-Met-ACCACC
Experimental: Synthesis of 4-thio-dT-p-C-p-puromycin 5′-Dimethoxytrityl-Nα-trifluoroacetyl-puromycin was attached to alkylamine-derivatized controlled pore glass via a 2′-succinate linkage by standard methods. See, Atkinson and Smith, Solid Phase Synthesis of Oligodeoxyribonucleotides by the Phosphate-triester Method, in Oligonucleotide Synthesis: A Practical Approach, Oxford: IRL Press, pp. 35-81, 1985. 4-Thio-dT-p-C-p-Puromycin (s^4TCPm) was prepared by standard phosphoramidite chemistry using the solid-phase version of puromycin, and rC and 4-thio-dT phosphoramidites (Glen Research Corporation, Sterling, Va.). Deprotection was performed by treatment with 3:1 NH4OH:MeOH/50 mM NaSH overnight at 55° C. Subsequently, 40 equivalents of 1 M tetrabutylammonium fluoride (TBAF) in tetrahydrofuran (THF) were added to the dried product and incubated overnight at room temperature. Finally, 20 mM triethylamine-acetate (pH. 7.0) was added to the reaction mixture, loaded directly on a C18 HPLC column, and eluted with increasing concentrations of acetonitrile (CH3CN). Multiple peaks were collected and the purity of the products was analyzed on a 20% polyacrylamide/7M urea gel following 5′-[^32P]-end-labelling using polynucleotide kinase. Although two peaks appeared to be relatively pure by this analysis, only the slowest migrating peak on the HPLC had any crosslinking ability. Kinetic characterization of s^4TCPm was performed using the tRNA fragment N-Ac-Met-ACCACC, as a P-site substrate, using fragment reaction conditions, and paper electrophoresis analysis of the resulting product, s^4TCPm-N-Ac-Met, as described by Green and Noller, RNA, 1996, 2:1011-1021. This analysis was complicated by the apparent affinity of the compound for both the A and P sites at high concentrations. The P-site affinity may be attributable to wobble pairing between 4-thio-dT (which mimics C74 of tRNA) and G2252 of 23S rRNA. See, Samaha et al., Nature 1995, 377:309-314. […]

[2] = tested on: 23S rRNA of E. coli tight-couple 70S ribosomes; assay: UV crosslinking of s^4TCPm to ribosomes; format: binding
Experimental: (§1) Crosslinking of ribosomes by s^4TCPm: Tight-couple E. coli 70S ribosomes (2 μM) were incubated with 1.2 equivalents (2.4 μM) of gene 32 mRNA and of deacylated CF23 tRNA^Phe in 20 mM Tris, pH 7.5, 30 mM MgCl2, 50 mM NH4Cl, 6 mM 2-mercaptoethanol, and 10% MeOH. Saturating s^4TCPm (20 μM) (or [^32P]-s^4TCPm) was then added and the mixture was incubated at 37° C. for 10 minutes. Crosslinking of s^4TCPm to B. stearothermophilus 70S ribosomes was performed under similar conditions except with 30 mM Tris pH 7.5, 10 mM MgCl2, and 330 mM KCl. Complexes were exposed for varying lengths of time to a hand-held UV light source (UVL-56, Blak-Ray Lamp, UVP, Inc.—366 nm) at a distance of 3 cm. […] Analysis of the amount of substrate crosslinked to the r-proteins was determined as described by Breitmeyer and Noller, J. Mol. Biol., 1976, 101:297-306.
Crosslinking to the peptidyl transferase A site: To target binding of the crosslinking reagent specifically to the peptidyl transferase A site, the P site of E. coli tight-couple 70S ribosomes, programed with a shortened version of bacteriophage T4 gene 32 mRNA, was filled with deacylated tRNA^Phe, followed by binding of radioactively labeled [^32P]-s^4TCPm (FIG. 3B). […] Total RNA was prepared from the UV-irradiated ribosomal complexes by phenol extraction and analyzed on a 3.8% denaturing polyacrylamide gel. […]

[3] = tested on: B. stearothermophilus 70S ribosomes 23S rRNA; assay: UV crosslinking of s^4TCPm to B. stearothermophilus ribosomes; format: binding; conditions: compared with E. coli ribosomes
Experimental: as §1, with “cm. Intact rRNAs were phenol extracted, and resolved on 3.8% polyacrylamide/7 M urea gels.” for “cm.”
The position of the crosslinked A-site substrate was first localized with a series of RNase H digestions to the region between positions 2538 and 2593 of 23S rRNA. Assignment of the site of crosslinking to position G2553 was achieved using primer extension analysis. Because of the impaired ability of reverse transcriptase to read modified bases on the rRNA template, a major cDNA product was obtained terminating one nucleotide 3′ to the modified base. […]

E. coli 50S subunit = assay: Peptidyl transferase reactivity of the crosslinked complex; format: biochemical; conditions: CACCA-(N-Ac-Phe), fragment reaction conditions
Experimental: (§2) Kinetic analysis of crosslinked ribosomal complex: Crosslinked 50S subunits were separated from 30S subunits, gene 32 mRNA, and deacylated tRNA^Phe on 5%-20% sucrose gradients in 10 mM Tris-Cl, pH 7.5, 30 mM NH4Cl, and 1 mM MgCl2, and spun in an SW41 rotor at 19,000 rpm for 16 hours. Excess sucrose was removed and the buffer exchanged to 20 mM Tris, pH 7.5, 100 mM NH4Cl, and 5 mM MgCl2 using Centricon 100 tubes spun at 2600 rpm in an SS34 rotor. Peptidyl transferase assays were done as follows: crosslinked 50S subunit complexes (0.5 μM) were incubated in standard fragment reaction conditions (50 mM Tris, pH 8.3, 0.4 M potassium acetate (KOAc), 60 mM MgCl2, and 33% MeOH) with CACCA-(N-Ac-Phe) (2 μM). Aliquots were removed from the reaction at the indicated times, rRNAs phenol extracted, digested with RNase T1, and the fragments resolved on 24% polyacrylamide/6 M urea gels. […] When incubated with ribosomes at these concentrations, these antibiotics protect specific positions in 16S and 23S rRNA from chemical modification. […] Ribosomal RNAs were phenol extracted and analyzed on a 3.8% polyacrylamide—7 M urea gel. […]

[4] = tested on: B. stearothermophilus 50S; assay: Peptidyl transferase reactivity of the crosslinked B. stearothermophilus complex; format: biochemical; conditions: minimal P-site substrates
Experimental: as §2

23S rRNA (2555 loop) = assay: Antibiotic inhibition of crosslinking by s^4TCPm to 23S rRNA; format: binding, E. coli; conditions: antibiotics 0.1 mM (neomycin 0.01 mM, puromycin 1 mM); limiting [32P]-s^4TCPm
Experimental: FIGS. 5A and 5B are graphs that indicate antibiotic inhibition of crosslinking by s^4TCPm to 23S rRNA (5A) and of peptidyl transferase activity of crosslinked complex (s^4TCPm-50S) (5B). Values were normalized to 1.0 for reactions where no antibiotics were included.
Kinetic analysis of crosslinked ribosomal complex: Crosslinked 50S subunits were separated from 30S subunits, gene 32 mRNA, and deacylated tRNA^Phe on 5%-20% sucrose gradients in 10 mM Tris-Cl, pH 7.5, 30 mM NH4Cl, and 1 mM MgCl2, and spun in an SW41 rotor at 19,000 rpm for 16 hours. Excess sucrose was removed and the buffer exchanged to 20 mM Tris, pH 7.5, 100 mM NH4Cl, and 5 mM MgCl2 using Centricon 100 tubes spun at 2600 rpm in an SS34 rotor. Peptidyl transferase assays were done as follows: crosslinked 50S subunit complexes (0.5 μM) were incubated in standard fragment reaction conditions (50 mM Tris, pH 8.3, 0.4 M potassium acetate (KOAc), 60 mM MgCl2, and 33% MeOH) with CACCA-(N-Ac-Phe) (2 μM). Aliquots were removed from the reaction at the indicated times, rRNAs phenol extracted, digested with RNase T1, and the fragments resolved on 24% polyacrylamide/6 M urea gels. […] When incubated with ribosomes at these concentrations, these antibiotics protect specific positions in 16S and 23S rRNA from chemical modification. Antibiotic inhibition of crosslinking was performed using limiting [^32P]-s^4TCPm and a single time point (2 minutes) of exposure […] to long-wave length (366 nm) UV light (in the linear range of the reaction) under standard conditions. Ribosomal RNAs were phenol extracted and analyzed on a 3.8% polyacrylamide—7 M urea gel. Antibiotic inhibition of PT activity was performed with the fragment P-site substrate, CACCA-(N-Ac-Phe), supplied at a concentration of 0.3 μM; a single linear time point of 4 minutes was used for analysis.
While sparsomycin is known to stabilize P-site substrate binding, it also competes effectively for binding with puromycin in the A site. As sparsomycin is ineffective in the context of a covalently tethered puromycin substrate, but active in preventing the crosslinking of s^4TCPm, it seems likely that its mode of inhibition results primarily from its effect on A-site interactions. Puromycin had no effect on the peptidyl transferase activity of the crosslinked complex, consistent with the high effective concentration of the s^4TCPm substrate covalently bound in the A site. These effects of the various antibiotics on the activity of the 50S subunit-s^4TCPm complex provide further evidence that the synthetic substrate, s^4TCPm, is crosslinked to its physiologically correct binding site.

[5] = tested on: crosslinked 50S subunit-s^4TCPm complex; assay: Antibiotic inhibition of peptidyl transferase activity of the crosslinked complex (s^4TCPm-50S); format: biochemical, E. coli; conditions: antibiotics 0.1 mM (neomycin 0.01 mM, puromycin 1 mM); CACCA-(N-Ac-Phe) 0.3 μM, 4 minutes
Experimental: Kinetic analysis of crosslinked ribosomal complex: Crosslinked 50S subunits were separated from 30S subunits, gene 32 mRNA, and deacylated tRNA^Phe on 5%-20% sucrose gradients in 10 mM Tris-Cl, pH 7.5, 30 mM NH4Cl, and 1 mM MgCl2, and spun in an SW41 rotor at 19,000 rpm for 16 hours. Excess sucrose was removed and the buffer exchanged to 20 mM Tris, pH 7.5, 100 mM NH4Cl, and 5 mM MgCl2 using Centricon 100 tubes spun at 2600 rpm in an SS34 rotor. Peptidyl transferase assays were done as follows: crosslinked 50S subunit complexes (0.5 μM) were incubated in standard fragment reaction conditions (50 mM Tris, pH 8.3, 0.4 M potassium acetate (KOAc), 60 mM MgCl2, and 33% MeOH) with CACCA-(N-Ac-Phe) (2 μM). Aliquots were removed from the reaction at the indicated times, rRNAs phenol extracted, digested with RNase T1, and the fragments resolved on 24% polyacrylamide/6 M urea gels. […] Antibiotic inhibition of PT activity was performed with the fragment P-site substrate, CACCA-(N-Ac-Phe), supplied at a concentration of 0.3 μM; a single linear time point of 4 minutes was used for analysis.

| Compound | Km [1] [µM] | inhibition of crosslinking of s^4TCPm to the 2555 loop of 23S rRNA (23S rRNA (2555 loop)) | inhibition of peptidyl transferase reactivity of the crosslinked complex [5] | further results |
| --- | --- | --- | --- | --- |
| 4-thio-dT-p-C-p-Puromycin [s^4TCPm] | ~10 |  |  | crosslinking to ribosomal proteins [2]: absence of significant crosslinking; UV irradiation time at which the crosslinking reaction was complete ([2]; 366 nm UV): 10 min; crosslinking efficiency with B. stearothermophilus ribosomes [3]: similarly efficient; crosslinked population reacted with P-site substrate (E. coli 50S subunit; 2 minutes): approximately 50%; crosslinked population reacted with P-site substrate (E. coli 50S subunit; 12 minutes): 85%; peptidyl transferase kinetics slower than E. coli complex [4]: ca. 10 fold |
| COc1ccc(CC(N)C(=O)NC2C(COP(=O)(O)OC3C(CO)OC(n4ccc(N)nc4=O)C3O)OC(n3cnc4c(N(C)C)ncnc43)C2O)cc1 (stereo not shown) [CPm, C-p-Puromycin] | ~10 |  |  |  |
| CO[C@@H]1[C@@H](O[C@@H]2O[C@H](C)[C@@H](O[C@H]3C[C@@](C)(O)[C@@H](OC(=O)CC(C)C)[C@H](C)O3)[C@H](N(C)C)[C@H]2O)[C@@H](CC=O)C[C@@H](C)C(=O)/C=C/[C@@H]2O[C@@H]2C[C@@H](C)OC(=O)C[C@H]1OC(C)=O [carbomycin] |  | specifically inhibited | effectively inhibited |  |
| O=C(N[C@H](CO)[C@H](O)c1ccc([N+](=O)[O-])cc1)C(Cl)Cl [chloramphenicol] |  | specifically inhibited | effectively inhibited |  |
| CC[C@H]1OC(=O)[C@H](C)[C@@H](O[C@H]2C[C@@](C)(OC)[C@@H](O)[C@H](C)O2)[C@H](C)[C@@H](O[C@@H]2O[C@H](C)C[C@H](N(C)C)[C@H]2O)[C@](C)(O)C[C@@H](C)C(=O)[C@H](C)[C@@H](O)[C@]1(C)O [erythromycin] |  | no effect |  |  |
| COc1ccc(C[C@H](N)C(=O)N[C@H]2[C@@H](O)[C@H](n3cnc4c(N(C)C)ncnc43)O[C@@H]2CO)cc1 [puromycin] | ~400 | specifically inhibited | no effect |  |
| CSC[S@+]([O-])C[C@H](CO)NC(=O)/C=C/c1c(C)[nH]c(=O)[nH]c1=O [sparsomycin] |  | strongly inhibited | no inhibitory effect |  |
| neomycin |  | no effect |  |  |
